Laboratory results taken from patent US5814467A, “APO AI polypeptides, diagnostic methods and systems for quantifying APO AI, and therapeutic methods” (The Scripps Research Institute, priority 1994, dated 1998).
“Also recorded” adds a separate entry of the source.

Key:
[1] = system: MAB AI-11; assay: Competitive RIA, MAB AI-11 binding to Apo AI/HDL-coated wells; set-up: species or system mouse; conditions: FIG. 5 and FIG. 6
Description: (§1) One hundred μl of PBS (0.15M NaCl, 0.01M NaPO4, pH 7.2) containing 10 μg/ml Apo AI/HDL were admixed to the wells of microtiter plates. The plates were maintained for 1 hour at 20° C. on a rotating platform to allow the Apo AI/HDL to adhere to the wells and form solid supports. After aspirating excess liquid from the wells, 200 μl of block solution (3% BSA, 3% NGS in PBS) was admixed to each well, and the wells were maintained for 30 minutes at 20° C. on a rotating platform. Subsequently, the blocking solution was removed by aspiration, and the wells were washed 3 times with SPRIA buffer.
(§2) To each well was then admixed first with 50 μl of PBS containing 3% BSA and various concentrations of competitor antigen, i.e., Apo AI/HDL peptide, and, second, 50 μl of MAB AI-4 in the form of clarified ascites diluted 1:11.25×10^5 in PBS containing 3% BSA to form competitive immunoreaction admixtures. In control wells, either competing antigen or antibody was replaced by PBS containing 3% BSA.
(§3) The immunoreaction admixtures were maintained about 16 hours at 4° C. on a rotating platform to permit formation of solid-phase immunoreaction products. After washing the wells as previously described, 100 μl of ^125 I-labeled goat anti-mouse Ig (^125 I-goat anti-mouse Ig diluted to 2×10^5 trichloracetic acid precipitable disintegrations per minute per 100 μl in PBS containing 3% BSA) were admixed to each well. The labeling immunoreaction admixtures so formed were maintained for 4 hours at 4° C. on a rotating platform. Subsequently, the wells were washed with SPRIA buffer as previously described, and the amount of ^125 I-labeled solid-phase immunoreaction product formed was determined in a gamma counter.
The immunoreactivity of MAB AI-11 for native Apo AI/HDL and various synthetic polypeptides was examined by a competitive RIA as described in Example 10A. […] Other peptides were evaluated for their ability to immunoreact with AI-1l MAE in competitive RIAs described herein.

[2] = system: monoclonal antibody AI-11; assay: Competition ELISA, AI-11 binding to AI96-111-coated wells; set-up: species or system mouse; conditions: FIG. 2, competitor from 1 mg/ml, serial 2-fold dilutions
Description: To determine the relative effectiveness of AI-11 binding to Apo AI synthetic polypeptides, a competition ELISA was performed with AI 96-111 as the test synthetic polypeptide in comparison to Apo AI-containing serum and purified Apo AI/HDL. Microtiter plates were coated with AI 96-111 as described hereinbefore. After the drying step of the assay described hereinbefore, 50 μl of a fluid sample (i.e., an Apo AI-containing fluid sample) or standard (i.e., an Apo AI polypeptide) to be assayed were admixed into the polypeptide AI96-111-coated well simultaneously with 50 μl of HRPO-conjugated AI-11 antibody to form an immunoreaction admixture. In the assay described herein, 3 competitors were tested for their ability to compete for binding of AI-11 to the AI 96-111 polypeptide coated over a range of dilutions. The polypeptide AI 96-111 was added in separate coated wells at a starting concentration of 1 mg/ml and diluted 2-fold serially 6 times down to a final concentration of 0.0156 mg/ml. Serum samples as described in Example 2 were added at a starting dilution of 1:10 and diluted 2-fold serially 6 times down to a final dilution of […]. Apo AI/HDL as described in Example 2 was added at a starting concentration of 1 mg/ml and diluted 2-fold 5 times down to a final concentration of 0.031 mg/ml. The plate was then incubated for 30 minutes at room temperature. […]

[3] = system: MAB AI-4; assay: Competitive RIA, MAB AI-4 binding to Apo AI/HDL-coated wells; set-up: species or system mouse; conditions: FIG. 3 and FIG. 4
Description: The immunoreactivity of MAB AI-4 for native Apo AI/HDL and various synthetic polypeptides was examined by a competitive RIA performed as follows:
as §1, §2, §3
The ability of MAB AI-4 to immunoreact with Apo AI/HDL was compared by using Apo AI/HDL and various synthetic peptides as competitors in the above-described RIA. B/Bo represents corrected CPMs which are plotted against increasing concentrations of competition in μg/ml. B/Bo values are determined in the following formula: [formula] where 0% CPM is a measure of non-specific background based on CPM obtained in RIAs where wells coated with Apo AI/HDL are reacted with the labeled secondary antibody in the absence of primary antibody and competitor, and where 100% CPM is a measure of the maximum non-competed binding of primary antibody to the substrate coated to the wells. The more efficiently a competitor binds to the primary antibody, the lower the B/Bo values.

[4] = biological target: T1, LCAT (Homo sapiens, UniProt P04180); conditions: cited from earlier work
T1 sequence (P04180 25-440): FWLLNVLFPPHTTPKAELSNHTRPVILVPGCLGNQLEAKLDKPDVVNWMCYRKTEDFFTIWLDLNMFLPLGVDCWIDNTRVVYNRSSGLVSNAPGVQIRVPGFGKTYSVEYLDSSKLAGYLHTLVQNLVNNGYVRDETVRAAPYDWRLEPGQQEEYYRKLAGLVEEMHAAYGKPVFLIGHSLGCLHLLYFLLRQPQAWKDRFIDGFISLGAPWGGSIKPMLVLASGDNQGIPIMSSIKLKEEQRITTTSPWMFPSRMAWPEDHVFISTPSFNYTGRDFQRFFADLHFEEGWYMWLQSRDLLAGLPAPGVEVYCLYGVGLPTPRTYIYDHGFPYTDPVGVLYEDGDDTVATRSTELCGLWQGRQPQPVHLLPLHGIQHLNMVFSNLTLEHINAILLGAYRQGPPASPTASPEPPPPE

[5] = system: monoclonal antibody AI-11; assay: Solid-phase polypeptide direct binding ELISA; set-up: species or system mouse; conditions: peptide coated at 50 μg/ml; 0.5 μg/ml HRP-conjugated AI-11
Description: Apo AI polypeptides AI84-111, AI85-111, AI90-111, AI93-111, AI94-111, AI-94-125, AI96-111, AI99-111, and AI99-114 were tested for immunoreactivity with monoclonal antibody AI-11 in a direct binding ELISA. In the assay, 50 μg/ml of each polypeptide was dissolved in PBS to form a peptide coating solution, of which 150 μl was admixed into the wells of a flexible polyvinyl chloride microtiter plate (Immulon). The wells were then maintained about 16 to 20 at 4° C. to permit the peptide to absorb onto (coat) the walls of the wells. After removing the peptide coating solution by shaking, the wells were washed once with 350 μl of rinsing buffer (PBS containing 1 g/l BSA, 0.5 ml/l Tween 20, and 2 μl/1 aprotinin). Excess protein binding sites were blocked by admixing 200 μl of blocking buffer (PBS containing 3% BSA) into each well, maintaining the wells for 1 hour at 37° C., removing the blocking buffer by shaking, and then washing the wells 3 times as previously described. The plate was then dried for 1 hour at 37° C. followed by addition of 100 μl of PBS containing 0.5 μg/ml horseradish peroxidase conjugated AI-11 antibody to form a solid-liquid phase immunoreaction admixture. The resulting solid-liquid phase immunoreaction admixture was maintained at 20° C. for 1 hour to permit formation of a solid-phase polypeptide-containing immunoreaction product. The wells were then washed 3 times with rinsing buffer to remove unbound antibody.
The amount of immunoreaction product present in the solid phase was then determined by admixing two hundred microliters of OPD substrate into each well to form a developing-reaction admixture. The admixture was maintained for 30 minutes at about 20° C. Subsequently, 50 μl of 4N H2 SO4 were admixed into each well to stop the developing-reaction, and the resulting solution was assayed for absorbance at 450 nanometers using a microtiter plate reader (Dynatech) to detect the amount of formed immunoreaction product.

Substance | immunoreactivity with MAB AI-11, competition of binding to Apo AI/HDL [1] | immunoreactivity with MAB AI-4, competition of binding to Apo AI/HDL [3] | immunoreactivity with monoclonal antibody AI-11 in direct binding ELISA [5] | other results
Apo AI/HDL: Apo AI when it is present on HDL particles, isolated from plasma [reference compound] | competitively inhibit | competitively inhibit | – | competition for binding of AI-11 to coated AI96-111 [2]: competitively inhibit; competition for binding of AI-11 to coated AI96-111 ([2]; listed as purified HDL): greater affinity
Apo AI fragment residues 148-185: Apo AI fragment residues 148-185 (Sparrow et al.) (MRDRARAHVDALRTHLAPYSDELRQRLAARLEALKENG; UniProt P02647 172-209, looked up, fragment) | – | – | – | involvement in activation of LCAT and lipid binding ([4]; Sparrow et al. 1980): involved in both activation of LCAT and lipid binding
Apo AI residues 121-164: synthetic polypeptide corresponding to Apo AI residues 121-164 (Fukushima et al.) (PLRAELQEGARQKLHELQEKLSPLGEEMRDRARAHVDALRTHLA; UniProt P02647 145-188, looked up, fragment) | – | – | – | effectiveness relative to native Apo AI in the activation of cholesterol esterification ([4]; Fukushima et al. 1980): 30%
KAKVQPYLDDXQKKWQEEMEL (KAKVQPYLDDFQKKWQEEMEL) [AI94-114] | – | partial reactivity | – | –
AI100-105: peptide derived from Apo AI, residues 100-105 (YLDDFQ) | do not immunoreact | did not react | – | –
KAKVQPYLDDXQKKWQEEMELYRQKVEPLRAE (KAKVQPYLDDFQKKWQEEMELYRQKVEPLRAE) [AI94-125] | inhibited; also recorded: immunoreact | better competitor; also recorded: competitively inhibit; also recorded: immunoreacts | specifically immunoreactive | –
AI101-111: peptide derived from Apo AI, residues 101-111 (LDDFQKKWQEE) | – | did not react | – | –
PYLDDXQKKWQEEMEL (PYLDDFQKKWQEEMEL) [AI99-114] | – | partial reactivity; also recorded: immunoreacted | recognized by the antibody but with decreased specificity | –
AI99-111: Apo AI polypeptide, residues 99-111 (PYLDDFQKKWQEE) | – | – | not bound by the antibody | –
PYLDDXQKKWQEEMELYRQKVEP (PYLDDFQKKWQEEMELYRQKVEP) [AI99-121] | does not bind; also recorded: not a competitive inhibitor | nearly as well as Apo AI/HDL; also recorded: competitively inhibit; also recorded: immunoreacts | – | –
